Data: the supplement of paper PMC11208160

Assay: recombinant barcode read abundance after kanamycin selection (control-corrected) (log10(CPM+1)); higher = more efficient recombination; sequences stand for … in AGTGCAGAGAAAATCGGCCAGTTTTCTCTGCCTGCAGTCCGCATGCCGT…ATTTATGCAGCGGACTGCCTTTCTCCCAAAGTGATAAACCGGACAGTATCATGGACCGGTTTTCCCGGTAATCCGTATTTGCAAGGTTGGTTTCACT; site = the 11-nt target
Procedure: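 Same pooled E. coli target screen (IS621 bridge recombinase, kanamycin selection, control-corrected CPM, mean of 2 biological replicates). Here the two core-binding nucleotides of the LTG and RTG of the bridge RNA target-binding loop are mutated. Target and donor CT cores are held constant, and the other 9 guide positions match the target. The target is read from the library oligo sequence. Molecule = full bridge RNA written as DNA: nt 1-80 from the library oligo, rest WT scaffold.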

“AGGCCTCAATGGGTTCTAACCTGTTGCCTTT [AGGCCTCCTAG_LTGcore_AA_RTGcore_AA] (site AGGCCTCCTAG) (LTG core: AA, RTG core: AA)” and “AGGCCTCACTGGGTTCTAACCTGTTGCCTAG [AGGCCTCCTAG_LTGcore_AC_RTGcore_CT] (site AGGCCTCCTAG) (LTG core: AC, RTG core: CT)” are within 0.2 log units of each other in “recombinant barcode read abundance (log10)” value: 0.0414 for the first, 0.134 for the second.

“AGGCCTCAGTGGGTTCTAACCTGTTGCCTCT [AGGCCTCCTAG_LTGcore_AG_RTGcore_AG] (site AGGCCTCCTAG) (LTG core: AG, RTG core: AG)” and “AGGCCTCCCTGGGTTCTAACCTGTTGCCTAG [AGGCCTCCTAG_LTGcore_CC_RTGcore_CT] (site AGGCCTCCTAG) (LTG core: CC, RTG core: CT)” are within 0.2 log units of each other in “recombinant barcode read abundance (log10)” value: 0.182 for the first, 0.293 for the second.

“AGGCCTCCTTGGGTTCTAACCTGTTGCCTCA [AGGCCTCCTAG_LTGcore_CT_RTGcore_TG] (site AGGCCTCCTAG) (LTG core: CT, RTG core: TG)” and “AGGCCTCCTTGGGTTCTAACCTGTTGCCTGC [AGGCCTCCTAG_LTGcore_CT_RTGcore_GC] (site AGGCCTCCTAG) (LTG core: CT, RTG core: GC)” are within 0.2 log units of each other in “recombinant barcode read abundance (log10)” value: 0.154 for the first, 0.112 for the second.

Compared with “AGGCCTCCTTGGGTTCTAACCTGTTGCCTGG [AGGCCTCCTAG_LTGcore_CT_RTGcore_CC] (site AGGCCTCCTAG) (LTG core: CT, RTG core: CC)”, “AGGCCTCCTTGGGTTCTAACCTGTTGCCTTG [AGGCCTCCTAG_LTGcore_CT_RTGcore_CA] (site AGGCCTCCTAG) (LTG core: CT, RTG core: CA)” is higher in “recombinant barcode read abundance (log10)” value: 0.337 for the first, 0.722 for the second.

“AGGCCTCGGTGGGTTCTAACCTGTTGCCTCC [AGGCCTCCTAG_LTGcore_GG_RTGcore_GG] (site AGGCCTCCTAG) (LTG core: GG, RTG core: GG)” and “AGGCCTCTCTGGGTTCTAACCTGTTGCCTGA [AGGCCTCCTAG_LTGcore_TC_RTGcore_TC] (site AGGCCTCCTAG) (LTG core: TC, RTG core: TC)” are within 0.2 log units of each other in “recombinant barcode read abundance (log10)” value: 0.0521 for the first, 0.047 for the second.

“AGGCCTCTTTGGGTTCTAACCTGTTGCCTAA [AGGCCTCCTAG_LTGcore_TT_RTGcore_TT] (site AGGCCTCCTAG) (LTG core: TT, RTG core: TT)” and “AGGCCTCTTTGGGTTCTAACCTGTTGCCTAG [AGGCCTCCTAG_LTGcore_TT_RTGcore_CT] (site AGGCCTCCTAG) (LTG core: TT, RTG core: CT)” are within 0.2 log units of each other in “recombinant barcode read abundance (log10)” value: 0.196 for the first, 0.103 for the second.

Compared with “AGGCGGGCATGGGTTCTAACCTGTTGCGGAG [AGGCGGGCTCC_LTGcore_CA_RTGcore_CT] (site AGGCGGGCTCC) (LTG core: CA, RTG core: CT)”, “AGGCGGGCATGGGTTCTAACCTGTTGCGGTG [AGGCGGGCTCC_LTGcore_CA_RTGcore_CA] (site AGGCGGGCTCC) (LTG core: CA, RTG core: CA)” is lower in “recombinant barcode read abundance (log10)” value: 2.3 for the first, 0.776 for the second.

Going from “AGGCGGGCGTGGGTTCTAACCTGTTGCGGCG [AGGCGGGCTCC_LTGcore_CG_RTGcore_CG] (site AGGCGGGCTCC) (LTG core: CG, RTG core: CG)” to “AGGCGGGCTTGGGTTCTAACCTGTTGCGGAA [AGGCGGGCTCC_LTGcore_CT_RTGcore_TT] (site AGGCGGGCTCC) (LTG core: CT, RTG core: TT)”, the “recombinant barcode read abundance (log10)” value rises from 0.0653 to 0.532.

Going from “AGGCGGGCTTGGGTTCTAACCTGTTGCGGGG [AGGCGGGCTCC_LTGcore_CT_RTGcore_CC] (site AGGCGGGCTCC) (LTG core: CT, RTG core: CC)” to “AGGCGGGGGTGGGTTCTAACCTGTTGCGGCC [AGGCGGGCTCC_LTGcore_GG_RTGcore_GG] (site AGGCGGGCTCC) (LTG core: GG, RTG core: GG)”, the “recombinant barcode read abundance (log10)” value falls from 0.756 to 0.0346.

Compared with “AGGCGGGTATGGGTTCTAACCTGTTGCGGAG [AGGCGGGCTCC_LTGcore_TA_RTGcore_CT] (site AGGCGGGCTCC) (LTG core: TA, RTG core: CT)”, “AGGCGGGTTTGGGTTCTAACCTGTTGCGGAG [AGGCGGGCTCC_LTGcore_TT_RTGcore_CT] (site AGGCGGGCTCC) (LTG core: TT, RTG core: CT)” is higher in “recombinant barcode read abundance (log10)” value: 0.232 for the first, 0.475 for the second.

“AGGCGGTACTGGGTTCTAACCTGTTGCTTAG [AGGCGGTCTAA_LTGcore_AC_RTGcore_CT] (site AGGCGGTCTAA) (LTG core: AC, RTG core: CT)” and “AGGCGGTATTGGGTTCTAACCTGTTGCTTAT [AGGCGGTCTAA_LTGcore_AT_RTGcore_AT] (site AGGCGGTCTAA) (LTG core: AT, RTG core: AT)” are within 0.2 log units of each other in “recombinant barcode read abundance (log10)” value: 0.272 for the first, 0.109 for the second.

“AGGCGGTCCTGGGTTCTAACCTGTTGCTTAG [AGGCGGTCTAA_LTGcore_CC_RTGcore_CT] (site AGGCGGTCTAA) (LTG core: CC, RTG core: CT)” and “AGGCGGTCCTGGGTTCTAACCTGTTGCTTGG [AGGCGGTCTAA_LTGcore_CC_RTGcore_CC] (site AGGCGGTCTAA) (LTG core: CC, RTG core: CC)” are within 0.2 log units of each other in “recombinant barcode read abundance (log10)” value: 0.341 for the first, 0.334 for the second.

Compared with “AGGCGGTCGTGGGTTCTAACCTGTTGCTTAG [AGGCGGTCTAA_LTGcore_CG_RTGcore_CT] (site AGGCGGTCTAA) (LTG core: CG, RTG core: CT)”, “AGGCGGTCTTGGGTTCTAACCTGTTGCTTCA [AGGCGGTCTAA_LTGcore_CT_RTGcore_TG] (site AGGCGGTCTAA) (LTG core: CT, RTG core: TG)” is lower in “recombinant barcode read abundance (log10)” value: 0.398 for the first, 0.171 for the second.

Going from “AGGCGGTCTTGGGTTCTAACCTGTTGCTTCG [AGGCGGTCTAA_LTGcore_CT_RTGcore_CG] (site AGGCGGTCTAA) (LTG core: CT, RTG core: CG)” to “AGGCGGTCTTGGGTTCTAACCTGTTGCTTTA [AGGCGGTCTAA_LTGcore_CT_RTGcore_TA] (site AGGCGGTCTAA) (LTG core: CT, RTG core: TA)”, the “recombinant barcode read abundance (log10)” value rises from 0.117 to 0.353.

“AGGCGGTGTTGGGTTCTAACCTGTTGCTTAC [AGGCGGTCTAA_LTGcore_GT_RTGcore_GT] (site AGGCGGTCTAA) (LTG core: GT, RTG core: GT)” and “AGGCGGTTATGGGTTCTAACCTGTTGCTTAG [AGGCGGTCTAA_LTGcore_TA_RTGcore_CT] (site AGGCGGTCTAA) (LTG core: TA, RTG core: CT)” are within 0.2 log units of each other in “recombinant barcode read abundance (log10)” value: 0.278 for the first, 0.168 for the second.

“AGGCGGTTATGGGTTCTAACCTGTTGCTTTA [AGGCGGTCTAA_LTGcore_TA_RTGcore_TA] (site AGGCGGTCTAA) (LTG core: TA, RTG core: TA)” and “AGGCGGTTCTGGGTTCTAACCTGTTGCTTAG [AGGCGGTCTAA_LTGcore_TC_RTGcore_CT] (site AGGCGGTCTAA) (LTG core: TC, RTG core: CT)” are within 0.2 log units of each other in “recombinant barcode read abundance (log10)” value: 0.025 for the first, 0 for the second.
